Measured values as given in patent publication US20090131481A1, “Transcription Factor Modulating Compounds and Methods of Use Thereof” (Paratek Pharmaceuticals, Inc., published 2009).
Where two headings read alike, the source gives them in different places.

Tests used:
[1] = target: T1, SoxS (Escherichia coli, UniProt P0A9E2); experiment: Chemiluminescence-based SoxS-DNA binding assay; design: made in house; species or system E. coli; settings: for inhibition at 25 µg/mL: compound screening concentration of 25 μg/ml (footnote d); for EC50: dose response analysis (footnote c), read-out: in vitro SoxS activity: concentration necessary to inhibit DNA-protein binding by 50% (EC50)
T1 sequence (P0A9E2 1-107): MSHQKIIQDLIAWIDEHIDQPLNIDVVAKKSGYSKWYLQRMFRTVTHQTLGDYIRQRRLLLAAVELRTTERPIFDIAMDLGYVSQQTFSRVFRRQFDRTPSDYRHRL

[2] = system: E. coli UPEC strain C189; experiment: Ascending pyelonephritis model of infection (Example 3); type: in vivo; settings: female CD1 mice, oral dosing at infection and once a day for 4 days, 5-day infection
[3] = target: T2, ExsA (Pseudomonas aeruginosa, UniProt P26993); experiment: Chemiluminescence-based ExsA-DNA binding assay; design: species or system P. aeruginosa; settings: Table 7, cell-free system; read-out: ExsA EC50
T2 construct: made in house
T2 sequence (P26993 1-278): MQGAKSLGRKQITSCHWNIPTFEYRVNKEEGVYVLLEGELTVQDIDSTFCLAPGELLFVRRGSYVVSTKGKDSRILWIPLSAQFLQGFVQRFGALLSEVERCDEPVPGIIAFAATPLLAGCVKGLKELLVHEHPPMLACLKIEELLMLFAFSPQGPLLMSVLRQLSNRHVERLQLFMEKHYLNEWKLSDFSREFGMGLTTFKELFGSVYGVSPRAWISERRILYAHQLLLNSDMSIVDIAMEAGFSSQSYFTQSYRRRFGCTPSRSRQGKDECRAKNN

[4] = system: Y. pseudotuberculosis; experiment: microbe, parasite or virus in culture; settings: Yersinia pseudotuberculosis, J774, read-out: % Cytotoxicity
[5] = target: LcrF (VirF) (Yersinia pestis, UniProt P28808); experiment: biochemical; type: binding, Y. pseudotuberculosis; settings: EC50 for inhibition of LcrF(VirF)-DNA binding
[6] = system: P. aeruginosa; experiment: P. aeruginosa cytotoxicity whole cell assay (J774 cells, LDH release); settings: relative to vehicle treated cells infected with wild type P. aeruginosa
[7] = read-out: in vitro SoxS activity: percent inhibition of DNA-protein binding
[8] = read-out: % Inhibition (SoxS binding to DNA)
[9] = compound screening concentration of 50 μg/ml (footnote b), read-out: in vitro SoxS activity: percent inhibition of DNA-protein binding

Chain of LcrF (VirF) (P28808 whole entry, looked up): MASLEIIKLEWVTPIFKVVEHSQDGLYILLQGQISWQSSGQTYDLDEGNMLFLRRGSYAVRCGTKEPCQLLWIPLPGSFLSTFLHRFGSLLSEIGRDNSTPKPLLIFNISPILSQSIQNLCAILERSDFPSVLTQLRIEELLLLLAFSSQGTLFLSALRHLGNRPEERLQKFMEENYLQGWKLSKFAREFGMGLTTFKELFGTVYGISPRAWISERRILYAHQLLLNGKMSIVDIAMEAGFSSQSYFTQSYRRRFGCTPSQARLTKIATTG

CC(C)(C)C(=O)Nc1ccc(-c2nc3ccc([N+](=O)[O-])cc3n2O)cc1 [CK]
inhibition at 25 µg/mL [1, 7]: > 70%
Efficacy (log10 decrease in the CFU/g kidney tissue) [2]: *** (exhibited a 0-1.0 log decrease in CFU/g)

CN(C)c1ccc2nc(-c3ccccc3)n(O)c2c1 [BF]
inhibition at 50 µg/mL [1, 8]: 0 to 29%

O=[N+]([O-])c1ccc2nc(-c3ccccc3)n(OCCO)c2c1 [AS]
inhibition at 50 µg/mL [1, 8]: < 0%

COc1ccc(-c2nc3ccc([N+](=O)[O-])cc3n2O)cc1 [AV]
inhibition at 50 µg/mL [1, 8]: 0 to 29%

N#CCOn1c(-c2ccccc2)nc2ccc([N+](=O)[O-])cc21 [BD]
inhibition at 50 µg/mL [1, 8]: 0 to 29%

CCCOn1c(-c2ccccc2)nc2ccc([N+](=O)[O-])cc21 [AR]
inhibition at 50 µg/mL [1, 8]: < 0%

CCOC(=O)COn1c(-c2ccccc2)nc2ccc([N+](=O)[O-])cc21 [AP]
inhibition at 50 µg/mL [1, 8]: < 0%

O=C(O)CCn1c(-c2ccccc2)nc2ccc([N+](=O)[O-])cc21 [AO]
inhibition at 50 µg/mL [1, 8]: < 0%

CS(=O)(=O)c1ccc2nc(-c3ccccc3)n(O)c2c1 [BI]
inhibition at 50 µg/mL [1, 8]: 30 to 69%

CC(=NO)c1ccc2nc(-c3ccccc3)n(O)c2c1 [BJ]
inhibition at 50 µg/mL [1, 8]: 30 to 69%

O=C(Nc1ccc(-c2nc3ccc([N+](=O)[O-])cc3n2O)cc1)c1cccc(Cl)c1 [CG]
EC50 [1]: 1 to 4.9 µM

COc1ccc(C(=O)Nc2ccc(-c3nc4ccc([N+](=O)[O-])cc4n3O)cc2)cc1 [B]
EC50 [3]: > 25 µM
inhibition at 50 µg/mL [1, 9]: > 70%
activity at 50 µg/mL [4]: < 75%
Efficacy (log10 decrease in the CFU/g kidney tissue) [2]: *** (exhibited a 0-1.0 log decrease in CFU/g)
EC50 [5]: 10 to 25 µM

O=C(Nc1ccc(-c2nc3ccc([N+](=O)[O-])cc3n2O)cc1)c1ccccc1 [A]
EC50 [3]: 10 to 25 µM
inhibition at 50 µg/mL [1, 8]: > 70%
EC50 [5]: 10 to 25 µM

Nc1cccc(-c2nc3ccc([N+](=O)[O-])cc3n2O)c1 [BO]
inhibition at 50 µg/mL [1, 8]: 30 to 69%
inhibition at 50 µg/mL [1, 7]: < 29%

On1c(-c2ccccc2)nc2ccc(C(F)(F)F)cc21 [AX]
inhibition at 50 µg/mL [1, 8]: 0 to 29%

Cc1ccc(-c2nc3ccc([N+](=O)[O-])cc3n2O)o1 [GC]
inhibition at 50 µg/mL [1, 9]: 30 to 69%
Efficacy (log10 decrease in the CFU/g kidney tissue) [2]: ** (exhibited a 1.1-2.0 log decrease in CFU/g)

CC(=O)Nc1ccc(-c2nc3ccc([N+](=O)[O-])cc3n2O)cc1 [CH]
inhibition at 50 µg/mL [1, 8]: > 70%

O=C(Nc1ccc(-c2nc3ccc([N+](=O)[O-])cc3n2O)cc1)c1ccc(Cl)cc1 [CE]
inhibition at 25 µg/mL [1, 7]: > 70%

N#Cc1ccc2nc(-c3ccccc3)n(O)c2c1 [BC]
inhibition at 50 µg/mL [1, 8]: 30 to 69%

Cc1ccc(C(=O)Nc2ccc(-c3nc4ccc([N+](=O)[O-])cc4n3O)cc2)cc1 [D]
EC50 [3]: < 10 µM
EC50 [1]: 1 to 4.9 µM
activity at 50 µg/mL [4]: < 75%
EC50 [5]: 10 to 25 µM

O=C(O)Cn1c(-c2nc3ccc([N+](=O)[O-])cc3n2O)nc2ccccc21 [BS]
EC50 [1]: 1 to 4.9 µM
Efficacy (log10 decrease in the CFU/g kidney tissue) [2]: *** (exhibited a 0-1.0 log decrease in CFU/g)

N#Cc1ccc(C(=O)Nc2ccc(-c3nc4ccc([N+](=O)O)cc4n3O)cc2)cc1 [E]
EC50 [3]: 10 to 25 µM
activity at 50 µg/mL [4]: < 75%
Efficacy (log10 decrease in the CFU/g kidney tissue) [2]: ** (exhibited a 1.1-2.0 log decrease in CFU/g)
EC50 [5]: 10 to 25 µM

Nc1ccccc1-c1nc2ccc([N+](=O)[O-])cc2n1O [BN]
inhibition at 50 µg/mL [1, 8]: 0 to 29%

On1c(-c2ccccc2)nc2ccccc21 [AT]
inhibition at 50 µg/mL [1, 8]: < 0%

CN(C)c1cccc(-c2nc3ccc([N+](=O)[O-])cc3n2O)c1 [BV]
inhibition at 50 µg/mL [1, 8]: 0 to 29%

COn1c(-c2ccccc2)nc2ccc([N+](=O)[O-])cc21 [BR]
inhibition at 50 µg/mL [1, 8]: 0 to 29%

O=C(NCc1ccc(-c2nc3ccc([N+](=O)[O-])cc3n2O)cc1)c1ccccc1 [CD]
inhibition at 50 µg/mL [1, 8]: 30 to 69%

Nc1ccc(-c2nc3ccc([N+](=O)[O-])cc3n2O)cc1 [BL]
inhibition at 50 µg/mL [1, 8]: > 70%

O=[N+]([O-])c1ccc2nc(-c3ccccc3)n(O)c2c1 [GB]
inhibition at 50 µg/mL [1, 8]: 30 to 69%

O=[N+]([O-])c1ccc2nc(-c3ccc(Oc4ccccc4)cc3)n(O)c2c1 [BW]
inhibition at 50 µg/mL [1, 8]: 0 to 29%

O=C(O)c1cccc(-c2nc3ccc([N+](=O)[O-])cc3n2O)c1 [BU]
EC50 [1]: > 5 µM
Efficacy (log10 decrease in the CFU/g kidney tissue) [2]: *** (exhibited a 0-1.0 log decrease in CFU/g)

CC(=O)c1ccc2nc(-c3ccccc3)n(O)c2c1 [AW]
inhibition at 50 µg/mL [1, 8]: 30 to 69%

COc1ccc2nc(-c3ccccc3)n(O)c2c1 [AZ]
inhibition at 50 µg/mL [1, 8]: < 0%

NCCOn1c(-c2ccccc2)nc2ccc([N+](=O)[O-])cc21 [BE]
inhibition at 50 µg/mL [1, 8]: < 0%

CC(C)(C)c1ccc2nc(-c3ccccc3)n(O)c2c1 [BH]
inhibition at 50 µg/mL [1, 8]: < 0%

O=C(O)c1ccc2nc(-c3ccccc3)n(O)c2c1 [BA]
inhibition at 50 µg/mL [1, 8]: 0 to 29%

On1c(-c2ccccc2)nc2ccc(F)cc21 [AY]
inhibition at 50 µg/mL [1, 8]: 0 to 29%

O=C(Nc1ccc(-c2nc3ccc([N+](=O)[O-])cc3n2O)cc1)C1=Cc2ccccc2OC1 [EY]
EC50 [3]: 10 to 25 µM
Cytotoxicity at 50 μg/mL Pseudomonas [6]: * (reduced P. aeruginosa cytotoxicity to 99-75% of untreated, wild type levels at 50 mg/mL)
activity at 50 µg/mL [4]: < 75%
EC50 [5]: 10 to 25 µM

O=C(/C=C/c1ccc(F)cc1)Nc1ccc(-c2nc3ccc([N+](=O)[O-])cc3n2O)cc1F [EL, (E)-N-[2-Fluoro-4-(1-hydroxy-6-nitro-1H-benzoimidazol-2-yl)-phenyl]-3-(4-fluoro-phenyl)-acrylamide]
EC50 [3]: 10 to 25 µM
Cytotoxicity at 50 μg/mL Pseudomonas [6]: * (reduced P. aeruginosa cytotoxicity to 99-75% of untreated, wild type levels at 50 mg/mL)
activity at 50 µg/mL [4]: < 75%
EC50 [5]: 10 to 25 µM

O=C(Nc1ccc(-c2nc3ncc([N+](=O)[O-])cc3n2O)cc1)c1ccc(F)cc1 [DI]
EC50 [3]: 10 to 25 µM
Cytotoxicity at 50 μg/mL Pseudomonas [6]: * (reduced P. aeruginosa cytotoxicity to 99-75% of untreated, wild type levels at 50 mg/mL)
activity at 50 µg/mL [4]: < 75%
EC50 [5]: 10 to 25 µM

COc1cc(C(=O)Nc2ccc(-c3nc4ccc([N+](=O)[O-])cc4n3O)cc2)ccc1F [DM]
EC50 [3]: 10 to 25 µM
Cytotoxicity at 50 μg/mL Pseudomonas [6]: * (reduced P. aeruginosa cytotoxicity to 99-75% of untreated, wild type levels at 50 mg/mL)
activity at 50 µg/mL [4]: < 75%
EC50 [5]: 10 to 25 µM

CC(=O)Nc1cccc(-c2nc3ccc([N+](=O)[O-])cc3n2O)c1 [BT]
inhibition at 50 µg/mL [1, 8]: 30 to 69%

Cc1cc(C(=O)Nc2ccc(-c3nc4ccc([N+](=O)[O-])cc4n3O)cc2)ccc1F [DD]
EC50 [3]: 10 to 25 µM
Cytotoxicity at 50 μg/mL Pseudomonas [6]: * (reduced P. aeruginosa cytotoxicity to 99-75% of untreated, wild type levels at 50 mg/mL)
activity at 50 µg/mL [4]: < 75%
EC50 [5]: 10 to 25 µM

O=[N+]([O-])c1ccc2nc(-c3ccc(O)cc3)n(O)c2c1 [BG]
inhibition at 50 µg/mL [1, 8]: 30 to 69%

O=[N+]([O-])c1ccc2nc(-c3ccc(Br)cc3)n(O)c2c1 [CA]
inhibition at 50 µg/mL [1, 8]: 0 to 29%

O=C(Nc1ccc(-c2nc3ccc([N+](=O)[O-])cc3n2O)cn1)c1ccc(F)cc1 [DU]
EC50 [3]: 10 to 25 µM
Cytotoxicity at 50 μg/mL Pseudomonas [6]: * (reduced P. aeruginosa cytotoxicity to 99-75% of untreated, wild type levels at 50 mg/mL)
activity at 50 µg/mL [4]: < 75%
EC50 [5]: 10 to 25 µM

O=C(O)COn1c(-c2ccccc2)nc2ccccc21 [AQ]
inhibition at 50 µg/mL [1, 8]: 0 to 29%
